{"source": "patent US7071376B2", "about": "“Genes encoding p-coumarate 3-hydroxylase (C3H) and methods of use” (Purdue Research Foundation, priority 2000, dated 2006)", "key": {"[1]": {"biological_target": "T1, C3H polypeptide (CYP98A3) (Arabidopsis thaliana, UniProt O22203)", "T1 sequence (O22203 1-508)": "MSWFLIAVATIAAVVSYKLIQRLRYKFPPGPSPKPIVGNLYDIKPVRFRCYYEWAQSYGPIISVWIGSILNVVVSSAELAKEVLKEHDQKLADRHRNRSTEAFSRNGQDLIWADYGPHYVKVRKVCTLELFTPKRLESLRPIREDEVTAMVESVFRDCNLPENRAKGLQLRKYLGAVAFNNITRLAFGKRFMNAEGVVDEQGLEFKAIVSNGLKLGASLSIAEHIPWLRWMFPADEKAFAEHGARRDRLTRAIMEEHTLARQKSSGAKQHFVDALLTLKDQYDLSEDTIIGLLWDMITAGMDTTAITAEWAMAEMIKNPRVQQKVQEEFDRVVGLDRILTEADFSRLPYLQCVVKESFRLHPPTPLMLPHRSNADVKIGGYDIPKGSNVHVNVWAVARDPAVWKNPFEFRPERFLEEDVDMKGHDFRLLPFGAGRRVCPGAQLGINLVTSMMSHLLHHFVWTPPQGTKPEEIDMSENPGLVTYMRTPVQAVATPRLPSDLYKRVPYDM", "assay": "in vitro C3H assay with microsomes from yeast expressing CYP98A3", "description": "For C3H assays, an NADPH regenerating system consisting of 1 mM NADP^+, 10 mM glucose-6-phosphate, and 1 unit glucose-6-phosphate dehydrogenase was pre-incubated at 30 C for 5 min to permit the generation of NADPH in the presence of one of the putative C3H substrates in a final volume of 400 μL of assay buffer. Assays were initiated by the addition of 100 μL of microsomes and were allowed to incubate for 60 min at 30C before being terminated by boiling. Assays were clarified by centrifugation for 20 min at 13,000 ×g, and were analyzed directly by HPLC on a Microsorb-MV C-18 column (Rainin, Woburn Mass.) using a gradient of solvent A (1.0% acetic acid in water) and solvent B (acetonitrile; 0 to 10% B in 5 min, 10 to 25% B in 25 min; flow rate 1 mL min^−1). C3H reaction products were quantified using UV detection (caffeic acid, 322 nm; caffeyl aldehyde, 340 nm; caffeic acid methyl ester, 324 nm). Assays conducted using microsomes isolated from yeast transformed with pYeDP60 served as negative controls. The apparent Km for p-coumarate methyl ester was determined using triplicate assays analyzed by the Eadie-Hofstee method(Cornish-Bowden, 1995).\nTo experimentally address these issues, C3H-containing microsomes were prepared for use in in vitro assays of enzymatic activity."}, "F5H": {"biological_target": "T2, F5H (Arabidopsis thaliana, UniProt Q42600)", "T2 construct": "host or cells: yeast", "T2 sequence (Q42600 1-520)": "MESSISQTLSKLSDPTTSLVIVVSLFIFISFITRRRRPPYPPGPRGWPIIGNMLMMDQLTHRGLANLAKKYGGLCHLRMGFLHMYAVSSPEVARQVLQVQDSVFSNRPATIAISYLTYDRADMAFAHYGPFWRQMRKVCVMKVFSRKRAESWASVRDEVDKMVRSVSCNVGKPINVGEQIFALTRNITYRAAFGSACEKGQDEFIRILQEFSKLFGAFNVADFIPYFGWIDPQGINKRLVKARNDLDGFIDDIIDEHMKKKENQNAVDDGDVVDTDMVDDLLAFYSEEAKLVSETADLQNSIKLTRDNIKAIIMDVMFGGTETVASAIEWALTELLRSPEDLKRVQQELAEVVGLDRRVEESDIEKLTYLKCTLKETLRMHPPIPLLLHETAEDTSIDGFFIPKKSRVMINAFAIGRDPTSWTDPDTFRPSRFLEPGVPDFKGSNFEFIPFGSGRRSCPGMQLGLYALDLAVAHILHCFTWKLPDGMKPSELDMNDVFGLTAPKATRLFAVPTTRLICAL", "details": "cited from earlier work"}, "[2]": {"biological_target": "T1, C3H polypeptide (CYP98A3)", "method": "WAT11 cells were transformed with pYeDP60, pYeDP60-REF8, and pYeDP60-ref8 (Gietz et al., 1992), cultured and then induced with galactose as described previously (Urban et al., 1994). For in vivo measurements of enzyme activity, cells were grown in media supplemented with 5 mM p-coumaric acid. At the end of the incubation period the medium was extracted with ethylacetate, and analyzed by HPLC as described above.\nFinally, WAT11 yeast carrying the control vector and the YeDP60-REF8 vector were assayed for C3H polypeptide activity in vivo by adding p-coumarate directly to the medium of galactose-induced yeast cultures."}, "[3]": {"details": "yeast microsomes, NADPH regenerating system, 60 min, 30 C, HPLC"}}, "note": "Where two headings read alike, the source gives them in different places.", "data": [{"compound": "OCC=Cc1ccc(O)cc1", "note": "[p-hydroxycinnamyl alcohol]", "values": [{"measurement": "activity of C3H toward substrate", "setting": "[1]; [3]", "value": "no activity"}]}, {"compound": "COc1cc(/C=C/CO)ccc1O", "note": "[coniferyl alcohol]", "values": [{"measurement": "Vmax", "setting": "F5H; substrate of F5H", "value": 6, "unit": "pKat mg^−1"}, {"measurement": "Km", "setting": "F5H; substrate of F5H, read-out: Km", "value": 3, "unit": "µM"}]}, {"compound": "COc1cc(/C=C/C=O)ccc1O", "note": "[coniferaldehyde]", "values": [{"measurement": "Vmax", "setting": "F5H; substrate of F5H", "value": 5, "unit": "pKat mg^−1"}, {"measurement": "Km", "setting": "F5H; substrate of F5H, read-out: Km", "value": 1, "unit": "µM"}]}, {"compound": "COC(=O)/C=C/c1ccc(O)cc1", "note": "[p-coumaroyl methyl ester]", "values": [{"measurement": "activity of C3H toward substrate", "setting": "[1]", "value": "much higher levels of activity"}, {"measurement": "Km", "setting": "[1]; read-out: apparent Km, substrate of C3H, yeast microsomes, triplicate assays, Eadie-Hofstee method", "value": "2.5 ± 0.1", "unit": "mM"}]}, {"compound": "O=C(/C=C/c1ccc(O)cc1)O[C@@H]1O[C@H](CO)[C@@H](O)[C@H](O)[C@H]1O", "note": "[1-O-p-coumaroyl—D-glucose]", "values": [{"measurement": "activity of C3H toward substrate", "setting": "[1]; [3]", "value": "no activity"}]}, {"compound": "CC(C)(COP(=O)(O)OP(=O)(O)OC[C@H]1O[C@@H](n2cnc3c(N)ncnc32)[C@H](O)[C@@H]1OP(=O)(O)O)[C@@H](O)C(=O)NCCC(=O)NCCSC(=O)/C=C/c1ccc(O)cc1", "note": "[p-coumaroyl CoA]", "values": [{"measurement": "activity of C3H toward substrate", "setting": "[1]; [3]", "value": "no activity"}]}, {"compound": "O=C/C=C/c1ccc(O)cc1", "note": "[p-coumaraldehyde]", "values": [{"measurement": "activity of C3H toward substrate", "setting": "[1]; [3]", "value": "Levels of activity comparable to those seen with p-coumarate"}]}, {"compound": "COc1cc(/C=C/C(=O)O)ccc1O", "note": "[ferulate]", "values": [{"measurement": "activity of C3H toward substrate", "setting": "[1]; [3]", "value": "No activity"}, {"measurement": "Km", "setting": "F5H; ferulate hydroxylation by F5H", "value": 1000, "unit": "µM"}]}, {"compound": "O=C(O)/C=C/c1ccc(O)cc1", "note": "[p-coumarate]", "values": [{"measurement": "activity of C3H toward substrate", "setting": "[1]", "value": "so low that it precluded detailed kinetic analysis"}, {"measurement": "hydroxylation of substrate added to yeast medium (product caffeic acid)", "setting": "[2]", "value": "capable of hydroxylating"}]}]}
